# Test: Stability of compound (1a) dissolved in organic solvents, formation of the hydrolysis product (ABEI-glutaric acid) monitored by HPLC
# Assay type: physicochemical
# Procedure: The stability of compound (1a) dissolved in organic solvents (DMSO, acetonitrile) was evaluated at two different storage temperatures, -30°C and +4°C, by monitoring the formation of the hydrolysis product (ABEI-glutaric acid) using a chromatographic HPLC system.
# Within the limits of reproducibility of the experimental determination, less than 2% of compound (1a) was hydrolysed to glutaric acid after 270 days at -30°C (Fig. 9), while less than 7% of compound (1a) was hydrolysed to acid at +4°C after 38 days (Fig. 10). This compares to the reported high instability of equivalent NHS esters which have half-lives of hours under physiological pH conditions. At 0°C and at pH 7, the half-life is typically 4-5 h [Lomant, A.J., Fairbanks, G. J. Mol. Biol. 1976, 104, 243-261], at pH 8.6 and 4°C this falls to only 10 min [Cuatrecaseas, P., Parikh, I. Biochemistry 1972, 11, 2291-2299].
substance,measurement,setting,value
N-(4-Aminobutyl)-N-ethylisoluminol anhydroglutarate [compound (1a)],compound (1a) hydrolysed to glutaric acid,"solution (DMSO), after 270 days at -30°C (Fig. 9)",less than 2%
same,compound (1a) hydrolysed to acid,"solution (DMSO), at +4°C after 38 days (Fig. 10)",less than 7%
same,stability of solution (in DMSO),stored at from +4°C to -30°C,highly stable
